Measurements: article PMC11274511, “Synthesis of Substituted 1,2,4-Triazole-3-Thione Nucleosides Using E. coli Purine Nucleoside Phosphorylase” (Biomolecules, 2024)
Read-outs that look alike come from different tables or passages of the source.

Legend:
HSV-1/L2(TK+) = test: microbe, parasite or virus in culture
Experimental: (§1) Herpes simplex virus type 1 (HSV-1) strain L2 was obtained from the State’s collection of viruses at FSBI «N. F. Gamaleya National Research Centre for Epidemiology and Microbiology, Russian Ministry of Health, Russia» («D. I. Ivanovsky Institute of Virology» subdivision).
(§2) Antiviral activity in vitro was measured by the method of the cytopathic effect (CPE) inhibition assay. In 96-well plastic plates with the 24 h generated cell monolayer, 2-fold serial dilutions of the compounds were prepared. Cells infected with MOI of 0.1 PFU/cell were incubated at 37 °C in 5% CO2 atmosphere. […] Antiviral activity was assessed by determining of IC50 and IC95.
(§3) Three controls were used: (1) Toxicity control. Uninfected cells were incubated in the presence of the drug in the same concentration range as in the experiment. (2) Virus control. […] (3) Cell control. Uninfected cell cultures were incubated in the maintenance medium, which contained no drug.

HSV-1/L2/R^ACV = test: microbe, parasite or virus in culture
Experimental: as §1, §2, §3

[1] = Cytotoxicity, trypan blue exclusion method; conditions: African green monkey
Experimental: (§4) Cytotoxicity was determined quantitatively by the trypan blue exclusion method. […] Negative control wells contained cells with maintenance medium.
(§5) After 72 h of cell culture incubation in the presence of a compound at a known concentration, the culture medium was harvested, the cells were treated with Versene solution, and suspended in the previously removed support medium. The resulting cell suspension was combined with 1% trypan blue solution in a ratio of 1:1. The number of live and stained cells was determined using a Goryaev camera (Minimed, Bryansk, Russia).

[2] = target: T1, E. coli purine nucleoside phosphorylase (PNP) (Escherichia coli, UniProt P0ABP8); test: Test reaction for 2-deoxyriboside synthesis (substrate test, HPLC); assay type: biochemical; conditions: for Deoxyriboside Content, % 1 h / Deoxyriboside Content, % 24 h: 1 mM base, 2 mM 2′-deoxyuridine, 10 mM KH2PO4, pH 7.0, 5.6 units PNP, 1.7 units UP, 50 °C; for Substrate of E. coli PNP (product formation according to HPLC): test reaction with 2′-deoxyuridine, PNP and UP
T1 construct: made in house; host or cells: E. coli ER2566
T1 sequence (P0ABP8 2-239): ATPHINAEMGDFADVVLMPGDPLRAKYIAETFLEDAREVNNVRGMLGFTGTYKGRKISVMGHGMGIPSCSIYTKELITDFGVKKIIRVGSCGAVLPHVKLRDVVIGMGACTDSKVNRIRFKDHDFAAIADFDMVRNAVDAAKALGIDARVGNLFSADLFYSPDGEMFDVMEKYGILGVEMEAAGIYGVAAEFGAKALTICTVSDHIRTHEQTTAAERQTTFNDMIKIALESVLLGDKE
Experimental: Each reaction mixture (0.25 mL, pH 7.0) contained 1 mM of the tested heterocyclic base, 2 mM 2′-deoxyuridine, 10 mM KH2PO4, and Escherichia coli purine nucleoside phosphorylase (5.6 units) and uridine phosphorylase (1.7 units). An activity unit is the amount (in µmol) of natural product (hypoxanthine or uracil) formed per minute. The reaction mixtures were incubated at 50 °C. Substrate and product quantities were determined using HPLC.
The test reactions contained the tested heterocyclic base, 2′-deoxyuridine, and both enzymes (PNP and UP).

AURORA-A = tested on: AURORA-A; parameters: method as in earlier work; conditions: cited from earlier work
Vero E6 cells = test: Cytotoxicity, trypan blue exclusion method; conditions: for Reduction of cytotoxicity compared to base 7: ribosylation / deoxyribosylation of base 7
Experimental: as §4, §5

FLT-3 = tested on: FLT-3; parameters: method as in earlier work; conditions: cited from earlier work
c-TAK1 = tested on: c-TAK1; parameters: method as in earlier work; conditions: cited from earlier work
[3] = Human alphaherpesvirus 1, Vero C1008, 48 h
[4] = Human alphaherpesvirus 1, Vero C1008, 48 h, Strain HSV-1/L2(TK+), Vero E6, MOI 0.1 PFU/cell, 48 h
[5] = Vero E6 cells, CC50, Vero E6 cells, 72 h, trypan blue
[6] = Strain HSV-1/L2(TK+), Vero E6, MOI 0.1 PFU/cell, 48 h
[7] = Vero E6 cells, 72 h, trypan blue
[8] = Strain HSV-1/L2/R^ACV, Vero E6, MOI 0.1 PFU/cell, 48 h

Molecule	IC95 (HSV-1/L2(TK+); [3]) [µM]	IC50 (HSV-1/L2(TK+); [4]) [µM]	SI (ratio of CC50 to IC50) (HSV-1/L2(TK+); Strain HSV-1/L2(TK+))	IC50 (HSV-1/L2/R^ACV; [3]) [µM]	IC95 (HSV-1/L2/R^ACV; [3]) [µM]	SI (ratio of CC50 to IC50) (HSV-1/L2/R^ACV; Strain HSV-1/L2/R^ACV)	CC50 at 72 h [1, 5] [µM]	IC50 (HSV-1/L2(TK+); [6]) [µM]	Deoxyriboside Content, % 1 h [2] [%]	Deoxyriboside Content, % 24 h [2] [%]	Substrate of E. coli PNP (product formation according to HPLC) [2]	also measured
O=C(CSc1ncn([C@H]2C[C@H](O)[C@@H](CO)O2)n1)c1ccccc1 [Compound 9, 1-(2-Deoxy-β-D-ribofuranosyl)-3-phenacylthio-1,2,4-triazole]	835 ± 51.8	418 ± 25.9	2	418 ± 25.9	835 ± 51.8	2	920 ± 77.2	–	–	–	–	–
CCCCSc1n[nH]c(-c2ccccc2)n1 [Compound 7, 3-Butylthio-5-phenyl-1,2,4-triazole]	> 67	33.5	3	67 ± 0.8	> 67	1	91.1	33.5 ± 0.4	62	41	product’s formation was observed	Activity against kinase AURORA-A (AURORA-A): active; Increase of toxicity compared to base 4 (Vero E6 cells; CC50 91.07 vs. 5642.39 µM): 62 fold; CC50 (Vero E6 cells; [7]): 91.1 ± 0.7 µM; Activity against kinase FLT-3 (FLT-3): active; Activity against kinase c-TAK1 (c-TAK1): active
CCCCSc1nc(-c2ccccc2)nn1[C@@H]1O[C@H](CO)[C@@H](O)[C@H]1O [Compound 12, 5-Butylthio-3-phenyl-1-(β-D-ribofuranosyl)-1,2,4-triazole]	375 ± 6.4	188 ± 3.2	4	188 ± 3.2	375 ± 6.4	4	657	–	–	–	–	Decrease of antiviral activity compared to base 7 (HSV-1/L2(TK+); IC50 based): 6 fold; CC50 (Vero E6 cells; [7]): 658 ± 13.9 µM; Reduction of cytotoxicity compared to base 7 (Vero E6 cells): more than 7 times
CCCCSc1nc(-c2ccccc2)nn1[C@H]1C[C@H](O)[C@@H](CO)O1 [Compound 13, 5-Butylthio-1-(2-deoxy-β-D-ribofuranosyl)-3-phenyl-1,2,4-triazole]	93.8 ± 2.4	23.4	16	46.9 ± 1.2	93.8 ± 2.4	8	364 ± 6	23.4 ± 0.6	–	–	–	Reduction of cytotoxicity compared to base 7 (Vero E6 cells): 4 times
5-Phenyl-1,2,4-triazole-3-thione [Compound 4]	–	–	–	–	–	–	–	2821 ± 25.4	0	0	did not prove to be substrates	IC95 (HSV-1/L2(TK+); [6]): >5642.4 µM; IC50 (HSV-1/L2/R^ACV; [8]): 2821 ± 25.4 µM; IC95 (HSV-1/L2/R^ACV; [8]): >5642.4 µM; CC50 (Vero E6 cells): > 5640 µM; CC50 (Vero E6 cells; [7]): > 5640 µM
1,2,4-Triazole-3-thione [Compound 3]	–	–	3	–	–	3	–	618 ± 3.7	0	0	did not prove to be substrates	IC95 (HSV-1/L2(TK+); [6]): >1236.0 µM; IC50 (HSV-1/L2/R^ACV; [8]): 618 ± 3.7 µM; IC95 (HSV-1/L2/R^ACV; [8]): >1236.0 µM; CC50 (Vero E6 cells): 1885.7 ± 1.7 µM
O=C(CSc1nc(-c2ccccc2)nn1[C@H]1C[C@H](O)[C@@H](CO)O1)c1ccccc1 [Compound 11, 1-(2-Deoxy-β-D-ribofuranosyl)-5-phenacylthio-3-phenyl-1,2,4-triazole]	149 ± 5.1	149 ± 5.1	2	149 ± 5.1	149 ± 5.1	2	244 ± 6.2	–	–	–	–	–
O=C(CSc1nc(-c2ccccc2)nn1[C@@H]1O[C@H](CO)[C@@H](O)[C@H]1O)c1ccccc1 [Compound 10, 5-Phenacylthio-3-phenyl-1-(β-D-ribofuranosyl)-1,2,4-triazole]	305 ± 8.8	152 ± 4.4	3	305 ± 8.8	305 ± 8.8	2	480 ± 6.2	–	–	–	–	–
O=C(CSc1nnc[nH]1)c1ccccc1 [Compound 5, 3-Phenacylthio-1,2,4-triazole]	2280 ± 20.5	570.1 ± 5.1	6	570.1 ± 5.1	2280 ± 20.5	6	3346 ± 26.5	–	94	25	product’s formation was observed	–
NC(=O)c1ncn([C@@H]2O[C@H](CO)[C@@H](O)[C@H]2O)n1 [Ribavirin, reference compound]	> 2050	512 ± 20	–	1020 ± 39.9	> 2050	–	–	–	–	–	–	CC50 at 72 h [1]: > 2050 µM
O=C(CSc1ncn([C@@H]2O[C@H](CO)[C@@H](O)[C@H]2O)n1)c1ccccc1 [Compound 8, 3-Phenacylthio-1-(β-D-ribofuranosyl)-1,2,4-triazole]	1520 ± 45.8	379 ± 11.4	>8	379 ± 11.4	3030 ± 91.5	>8	> 3030	–	–	–	–	–
